Assay results published in patent US20240294550A1, “8-OXA-3-AZABICYCLO[3.2.1]OCTANE COMPOUNDS OR SALT THEREOF, AND PREPARATION METHOD AND USE THEREOF” (LITTDD MEDICINES LTD, priority 2021, published 2024).
In brackets after ≈: the same amount, converted by molar mass. Counter-ions that a name gives are not always drawn. Like-named read-outs stand apart in the source and are kept apart here.

Experiments:
[1] = molecular target: ATR (Homo sapiens (Human), UniProt Q13535); experiment: ATR kinase inhibition assay (HTRF); format: biochemical; conditions: p53 substrate, ATP 150 nM
Experimental: This experiment adopted Homogeneous time-resolved fluorescence technology (HTRF®) of Cisbio Company for assay.
Experiment method: buffers were prepared as follows:
Preparation of solutions of the test compounds: The example compounds shown in the table below were prepared into solutions using DMSO as solvent, the stock solution typically being 10 mM. The maximum starting concentration in this experiment was 3 μM, DMSO 3-fold serial dilutions for concentrations, the serially diluted solution was added to each well of the corresponding 384-well plate (geriner bio-one, Cat #784075) to give final concentrations of 3000, 1000, 333, 111, 37, 12.3, 4.12, 1.37, 0.457, 0.152 nM, respectively, and the corresponding amount of DMSO was added to the additional wells to be used as negative or positive control wells, respectively.
The enzyme and substrate were separately dissolved and diluted in two tubes with the buffer prepared above at the following concentrations:
5 μL of the ATR protein solution from tube A was added to the compound-containing wells and the negative control wells in the assay plates using an electric multichannel pipettor, and the same volume of the prepared buffer (medium only, no enzyme) was added to the positive control wells. The plates were centrifuged for one minute at 1000 rpm, and then placed in an incubator at 25° C. for 15 minutes. 5 μL of the substrate mix solution from tube B was added to the positive control well, negative control well and the compound-containing well of the assay plates in the same manner, centrifuged and incubated at 25° C. for 90 minutes.
During the reaction, after ATR phosphorylated the substrate p53, two antibodies were added. Among them, anti-phospho-p53-Eu, as an energy donor, can specifically bind to the phosphorylation site of p53, while anti-GST-d2, as an energy receptor, can specifically bind to the GST-tagged p53. Upon excitation by a laser with certain wavelength (the excitation wavelength in this experiment is 340 nm), the energy donor can emit emission light of 615 nm, and when the energy donor and the energy receptor are close enough in space (that is, two antibodies are connected to p53 at the same time), energy transfer can occur between the energy donor and the energy receptor, so that the energy receptor can emit emission light of 665 nm. The two emission lights were detected by a plate reader, and the ratio of the signals at 665 nm and 615 nm was calculated. The IC50 of the samples tested can be obtained by plotting and calculation.
10 μL per well of the detection solution was added to the positive control, negative control and compound wells of the assay plate using an electric multichannel pipette, centrifuged and incubated overnight at 4° C., and read with the plate reader Envision 2104.
Compound inhibition rate was calculated using interpolation. The mean values of the positive and negative controls were calculated respectively, and the following formula was used to calculate the inhibition rates of the compounds:
Inhibition rate Minimum response+(Compound concentration ^Curve slope)*(Maximum response−Minimum response)/(Compound concentration^Curve slope+Half inhibition concentration ^Curve slope)
The IC50 value of each compound to enzyme activity was obtained.

[2] = system: LOVO cells; experiment: Cell proliferation assay (CellTiter-Glo); format: cell-based; conditions: Homo sapiens, 96 hours
Experimental: The cell proliferation inhibition effect of the compound of the invention was tested using CellTiter-Glo™ cell viability assay kit. This kit uses luciferase as the detector. During the luminescence process, the luciferase requires the participation of ATP. CellTiter-Glo™ reagent was added to the cell culture medium, and the luminescence value was measured. The light signal is proportional to the amount of ATP present in the system, and ATP positively correlates with the number of viable cells present, thus the cell proliferation activity is measured.
Cell culture and seeding: LOVO cells in logarithmic growth phase (human colon carcinoma cells) (ATCC CCL-229) were harvested and counted using a platelet counter. Trypan blue exclusion method was used to detect the cell viability to ensure that the cell viability was above 90%. 90 μL of cell suspension (RPMI1640+10% fetal bovine serum) was added to a 96-well transparent flat-bottom black-wall plate (Thermo, 165305) respectively, and the cell concentration was adjusted to 3000/well/90 μl. Cells in the 96-well plate were incubated overnight at 37° C., 5% CO2 with 95% humidity (Thermo, Model 3100 Series).
Firstly, DMSO was used as the solvent to prepare 10 mM mother solution of the test compounds, and then PBS was used to dilute 100 times to prepare a solution of 10 times of final concentration, the highest concentration was 100 μM. 10 μL solution of the test compounds was added to each well of the 96 well plate inoculated with cells, namely the solution was further diluted 10 times to reach the final concentration of 10 μM. Starting from 10 μM, the final concentration of the test compound was 3-fold serially diluted, with 9 concentrations in total with 3 triplicates for each concentration. The 96 well plates with the test compounds and cells were incubated at 37° C., 5% CO2 and 95% humidity for 96 hours, and then CellTiter Glo analysis was performed.
CellTiter-Glo Reagents (CellTiter Glo R Luminescent Cell Viability Assay, Promega, G7572) were melted and the 96-well plates were equilibrated to room temperature for 30 minutes. An equal volume of CellTiter-Glo solution was added to each well, and the cells were lysed by shaking on the fixed orbit shaker for 5 minutes. The assay plates were left at room temperature for 20 minutes to stabilize the luminescence signal, and the luminescence signals were read using the SpectraMax multi-labeled microplate detector (MD, M3).
Data were analyzed using GraphPad Prism 7.0 software, fitted with non-linear S-curve regression to derive the dose-response curves, and IC50 values were calculated therefrom.
Cell survival rate (%)=(LumDrug to be tested−LumCulture medium control)/(LumCell control−LumCulture medium control)×100%

[3] = Metabolic stability in human liver microsomes; format: in vitro ADME; conditions: for half-life at 1 μM: 1 μM compound; for microsomal CLint at 1 μM: read-out: CLint(mic)
Experimental: (§1) Drug-like Properties: Concepts, Structure Design and Methods: from ADME to Toxicity Optimization. […] Screen. […] After incubation for appropriate time (such as 5, 10, 20, 30 and 60 minutes), samples were collected, and an appropriate termination solution (glacial acetonitrile containing 200 ng/mL tolbutamide and 200 ng/mL labetalol (i.e. acetonitrile at 4° C.)) was added to stop the reaction. Sample treatment (n=1): each appropriate sample was added, vortexed and centrifuged at high speed. The supernatants were collected, and detected the substrate by HPLC-MS/MS. The peak area at the 0 min was set as 100%. The peak areas at other time points were converted to percentages of the remaining amount. The natural logarithms of the percentage of remaining amount at each time point was plotted against the incubation time, and the slope (−k) was calculated. Then, Clint (μL/min/mg) and half-life (T½, min) of the compounds were calculated following the equation: Inherent clearance rate (Clint)=(k*Volume of incubation solution)/Mass of liver microsomes.

[4] = Metabolic stability in mouse liver microsomes; format: in vitro ADME, CD-1 mice; conditions: for half-life at 1 μM: CD-1, 1 μM compound; for microsomal CLint at 1 μM: CD-1, read-out: CLint(mic)
Experimental: as §1

[5] = Pharmacokinetic (PK) assay in mice; format: in vivo; conditions: CD-1 mice; for half-life / Vd / bioavailability / C0 / AUC(0-t) / Cmax: mouse, plasma; for Vd: read-out: Vss; for bioavailability: Po dose 5 mg/kg vs IV dose 1 mg/kg; for AUC(0-t): read-out: AUC0-24 h
Experimental: The PK of each compound was determined as follows: 6 CD-1 mice (obtained from Shanghai Lingchang Biotechnology Co., Ltd.) were divided into two groups, 3 mice in each group. […] Blood samples were collected from saphenous vein of lower leg in each group at 0, 0.083, 0.25, 0.5, 1, 2, 4, 6, 8 and 24 h after administration. Approximately 40 μL of the blood samples were collected in anticoagulant tubes containing EDTA-K2. Immediately after collection, the tubes were inverted at least 5 times to ensure adequate mixing, and then placed on ice. The blood samples collected at each time point were centrifuged at 4° C., 8000 rpm for 5 minutes to obtain plasma. Another 1.5 mL centrifuge tube was marked with the compound name, animal number, and time point, and the plasma was transferred to this tube. The plasma was stored at −80° C. until analysis.
Compound concentrations in plasma were determined by UPLC-MS/MS method, and the pharmacokinetic parameters were calculated by Phoenix WinNolin 6.4 pharmacokinetic software on the obtained data.

[6] = Equilibrium solubility in FaSSIF; format: physicochemical; conditions: thermodynamic from solid; FaSSIF pH 6.5, shaken 24 hours
Experimental: The compound powder was weighed into a volumetric flask, 450 μL of pH 6.5 FaSSIF solution was added to obtain a supersaturated suspension, the samples were vortexed for at least 2 minutes, and the volumetric flasks were shaken on a vibrating screen at 800 rpm for 24 hours, and then centrifuged at 4000 rpm for 20 minutes. The compressed filtrate was added to a HPLC system, and the concentrations were calculated by a standard curve method.

Chain of ATR (Q13535 whole entry): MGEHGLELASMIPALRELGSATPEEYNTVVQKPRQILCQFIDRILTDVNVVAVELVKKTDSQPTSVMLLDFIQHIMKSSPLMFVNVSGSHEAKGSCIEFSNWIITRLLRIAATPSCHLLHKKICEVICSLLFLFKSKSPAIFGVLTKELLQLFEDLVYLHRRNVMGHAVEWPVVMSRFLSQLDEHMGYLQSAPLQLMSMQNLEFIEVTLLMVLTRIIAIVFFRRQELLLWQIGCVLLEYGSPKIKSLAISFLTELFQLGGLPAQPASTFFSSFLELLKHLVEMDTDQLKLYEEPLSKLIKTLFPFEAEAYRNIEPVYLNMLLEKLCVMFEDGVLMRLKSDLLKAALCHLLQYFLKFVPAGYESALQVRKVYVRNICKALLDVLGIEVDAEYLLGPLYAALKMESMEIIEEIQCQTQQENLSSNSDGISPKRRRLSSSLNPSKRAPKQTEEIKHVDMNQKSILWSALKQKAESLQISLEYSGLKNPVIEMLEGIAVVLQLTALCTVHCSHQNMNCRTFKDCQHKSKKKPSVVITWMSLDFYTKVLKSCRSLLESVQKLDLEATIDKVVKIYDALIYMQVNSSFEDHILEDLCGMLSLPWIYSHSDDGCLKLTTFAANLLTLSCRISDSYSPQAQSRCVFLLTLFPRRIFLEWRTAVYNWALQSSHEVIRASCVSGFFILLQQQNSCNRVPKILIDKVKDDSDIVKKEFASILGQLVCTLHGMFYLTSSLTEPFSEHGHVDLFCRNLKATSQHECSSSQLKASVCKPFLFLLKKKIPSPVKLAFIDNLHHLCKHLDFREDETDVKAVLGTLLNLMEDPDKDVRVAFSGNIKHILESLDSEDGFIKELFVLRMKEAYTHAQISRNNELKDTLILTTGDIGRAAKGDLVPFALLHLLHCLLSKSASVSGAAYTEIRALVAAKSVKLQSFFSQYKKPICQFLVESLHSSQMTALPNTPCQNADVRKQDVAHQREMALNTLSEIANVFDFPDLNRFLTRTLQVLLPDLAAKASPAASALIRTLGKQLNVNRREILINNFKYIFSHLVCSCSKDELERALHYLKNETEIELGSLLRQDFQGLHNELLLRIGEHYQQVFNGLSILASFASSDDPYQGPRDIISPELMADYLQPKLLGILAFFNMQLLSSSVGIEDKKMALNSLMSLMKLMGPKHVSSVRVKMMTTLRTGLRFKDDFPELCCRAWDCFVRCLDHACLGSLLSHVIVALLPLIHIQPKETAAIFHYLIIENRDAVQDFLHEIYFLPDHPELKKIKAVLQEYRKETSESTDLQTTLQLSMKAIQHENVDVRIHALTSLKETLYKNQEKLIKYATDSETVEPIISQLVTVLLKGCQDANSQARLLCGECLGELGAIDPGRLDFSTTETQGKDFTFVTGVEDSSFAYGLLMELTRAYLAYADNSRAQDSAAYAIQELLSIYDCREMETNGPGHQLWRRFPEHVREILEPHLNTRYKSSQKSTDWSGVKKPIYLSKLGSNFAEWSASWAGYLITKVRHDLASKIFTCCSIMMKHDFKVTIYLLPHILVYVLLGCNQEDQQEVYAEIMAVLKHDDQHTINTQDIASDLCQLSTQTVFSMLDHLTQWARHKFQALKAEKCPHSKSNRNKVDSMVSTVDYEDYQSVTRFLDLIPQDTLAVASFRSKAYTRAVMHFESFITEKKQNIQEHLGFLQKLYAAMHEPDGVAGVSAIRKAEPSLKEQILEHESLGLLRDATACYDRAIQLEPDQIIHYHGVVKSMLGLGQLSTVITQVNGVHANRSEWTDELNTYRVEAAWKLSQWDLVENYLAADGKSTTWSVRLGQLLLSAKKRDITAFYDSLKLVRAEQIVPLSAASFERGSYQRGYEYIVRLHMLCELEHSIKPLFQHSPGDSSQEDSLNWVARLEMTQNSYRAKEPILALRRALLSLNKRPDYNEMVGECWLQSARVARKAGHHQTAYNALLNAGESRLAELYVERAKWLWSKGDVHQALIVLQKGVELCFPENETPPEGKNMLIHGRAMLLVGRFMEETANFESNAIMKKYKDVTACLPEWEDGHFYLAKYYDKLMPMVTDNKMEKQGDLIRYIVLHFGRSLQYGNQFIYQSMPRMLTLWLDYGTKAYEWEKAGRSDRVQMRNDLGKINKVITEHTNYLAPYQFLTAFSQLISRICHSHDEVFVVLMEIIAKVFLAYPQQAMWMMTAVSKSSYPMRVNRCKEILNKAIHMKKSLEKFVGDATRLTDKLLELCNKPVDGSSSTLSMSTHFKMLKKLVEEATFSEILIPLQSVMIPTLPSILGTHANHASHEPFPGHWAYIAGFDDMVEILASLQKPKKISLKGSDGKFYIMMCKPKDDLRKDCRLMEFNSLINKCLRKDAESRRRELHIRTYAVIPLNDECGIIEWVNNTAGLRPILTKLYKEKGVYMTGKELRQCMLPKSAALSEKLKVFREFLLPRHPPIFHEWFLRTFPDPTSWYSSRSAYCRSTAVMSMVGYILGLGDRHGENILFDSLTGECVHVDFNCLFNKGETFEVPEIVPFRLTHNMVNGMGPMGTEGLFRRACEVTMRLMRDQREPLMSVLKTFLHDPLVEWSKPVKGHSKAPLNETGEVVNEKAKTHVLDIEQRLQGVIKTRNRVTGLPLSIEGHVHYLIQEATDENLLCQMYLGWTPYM
Chain of ATR (Q8WXE1 whole entry partner): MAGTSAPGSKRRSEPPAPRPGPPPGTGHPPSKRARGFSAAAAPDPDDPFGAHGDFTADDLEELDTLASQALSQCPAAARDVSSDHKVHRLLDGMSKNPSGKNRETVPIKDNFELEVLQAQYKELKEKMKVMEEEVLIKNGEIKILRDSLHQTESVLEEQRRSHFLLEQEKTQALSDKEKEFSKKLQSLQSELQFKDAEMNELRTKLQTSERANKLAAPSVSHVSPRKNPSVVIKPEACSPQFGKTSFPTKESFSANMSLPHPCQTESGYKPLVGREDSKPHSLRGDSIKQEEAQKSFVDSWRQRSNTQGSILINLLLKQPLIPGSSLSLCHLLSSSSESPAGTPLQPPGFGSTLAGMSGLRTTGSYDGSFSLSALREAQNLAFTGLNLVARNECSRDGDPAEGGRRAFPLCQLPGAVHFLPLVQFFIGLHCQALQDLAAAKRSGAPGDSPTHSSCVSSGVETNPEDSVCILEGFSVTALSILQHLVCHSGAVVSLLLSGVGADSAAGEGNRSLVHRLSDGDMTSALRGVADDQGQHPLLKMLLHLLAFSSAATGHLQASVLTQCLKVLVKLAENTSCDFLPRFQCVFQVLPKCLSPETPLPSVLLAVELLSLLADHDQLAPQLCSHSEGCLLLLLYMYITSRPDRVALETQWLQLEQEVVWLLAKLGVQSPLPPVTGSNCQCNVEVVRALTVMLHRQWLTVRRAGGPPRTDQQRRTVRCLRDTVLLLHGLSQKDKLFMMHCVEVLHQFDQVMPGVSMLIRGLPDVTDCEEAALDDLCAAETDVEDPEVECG

Question: For `C[C@@H]1COCCN1c1cc(N2CC3CCC(C2)O3)nc2c1cnn2-c1cc[nH]n1` [Example 5, 3-(4-((R)-3-methylmorpholino)-1-(1H-pyrazol-3-yl)-1H-pyrazolo[3,4-b]pyridin-6-yl)-8-oxa-3-azabicyclo[3.2.1]octane], which IC50 [1] is on record?
Answer: 8.2 nM

Question: What about the IC50 [2] of the same compound?
Answer: 384 nM

Question: And the half-life at 1 μM [3]?
Answer: > 2.42 h

Question: And the “Remain % (T = 60 min)” value [3]?
Answer: 77.1%

Question: What about the microsomal CLint at 1 μM [3] of the same compound?
Answer: < 9.6 µL/min/mg

Question: What about the half-life at 1 μM [4] of the same compound?
Answer: 1.12 h

Question: And the microsomal CLint at 1 μM [4]?
Answer: 20.5 µL/min/mg

Question: What about the “Remain % (T = 60 min)” value [4] of the same compound?
Answer: 56.6%

Question: What about the CL_obs ([5]; IV dose 1 mg/kg) of the same compound?
Answer: 6.15 mL/min/kg

Question: What about the half-life ([5]; IV dose 1 mg/kg) of the same compound?
Answer: 3.45 h

Question: What about the Vd ([5]; IV dose 1 mg/kg) of the same compound?
Answer: 0.75 L/kg

Question: And the half-life ([5]; Po dose 5 mg/kg)?
Answer: 2.58 h

Question: And the bioavailability [5]?
Answer: 69%

Question: What about the C0 ([5]; IV dose 1 mg/kg) of the same compound?
Answer: 2180 ng/mL

Question: What about the AUC(0-t) ([5]; IV dose 1 mg/kg) of the same compound?
Answer: 2700 ng·h/mL

Question: What about the Cmax ([5]; Po dose 5 mg/kg) of the same compound?
Answer: 3020 ng/mL

Question: What about the AUC(0-t) ([5]; Po dose 5 mg/kg) of the same compound?
Answer: 9330 ng·h/mL

Question: Which IC50 [1] does the source give for `c1cc(-c2ncc3c(N4CC5CCC(C4)O5)cc(N4CC5CCC(C4)O5)nn23)n[nH]1` [Example 6, 3-(4-(8-oxa-3-azabicyclo[3.2.1]octan-3-yl)-7-(1H-pyrazol-3-yl)imidazo[1,5-b]pyridazin-2-yl)-8-oxa-3-azabicyclo[3.2.1]octane] here?
Answer: 13.2 nM

Question: And the IC50 [2]?
Answer: 97 nM

Question: What about the half-life at 1 μM [3] of the same compound?
Answer: > 2.42 h

Question: What about the “Remain % (T = 60 min)” value [3] of the same compound?
Answer: 74.8%

Question: And the microsomal CLint at 1 μM [3]?
Answer: < 9.6 µL/min/mg

Question: What about the half-life at 1 μM [4] of the same compound?
Answer: 0.56 h

Question: What about the microsomal CLint at 1 μM [4] of the same compound?
Answer: 41.3 µL/min/mg

Question: What about the “Remain % (T = 60 min)” value [4] of the same compound?
Answer: 30.7%

Question: Which results are given for `C[C@@H]1COCCN1c1cc(N2CC3CCC(C2)O3)nn2c(-c3cc[nH]n3)ncc12` [Example 3, 3-(4-((R)-3-methylmorpholino)-7-(1H-pyrazol-3-yl)imidazo[1,5-b]pyridazin-2-yl)-8-oxa-3-azabicyclo[3.2.1]octane]?
Answer: IC50 [1]: 5.9 nM; IC50 [2]: 67 nM; CL_obs ([5]; IV dose 1 mg/kg): 10.0 mL/min/kg; half-life ([5]; IV dose 1 mg/kg): 7.56 h; Vd ([5]; IV dose 1 mg/kg): 1.03 L/kg; half-life ([5]; Po dose 5 mg/kg): 3.99 h; bioavailability [5]: 77.5%; C0 ([5]; IV dose 1 mg/kg): 2860 ng/mL; AUC(0-t) ([5]; IV dose 1 mg/kg): 1650 ng·h/mL; Cmax ([5]; Po dose 5 mg/kg): 3150 ng/mL; AUC(0-t) ([5]; Po dose 5 mg/kg): 6460 ng·h/mL; solubility at 24 h [6]: 1140 µg/mL (≈ 2890 µM)

Question: Which results are given for `C[C@@H]1COCCN1c1cc(N2CC3CCC(C2)O3)nn2c(-c3cc[nH]n3)cnc12` [Example 2, 3-(8-((R)-3-methylmorpholino)-3-(1H-pyrazol-3-yl)imidazo[1,2-b]pyridazin-6-yl)-8-oxa-3-azabicyclo[3.2.1]octane]?
Answer: IC50 [1]: 40.3 nM; IC50 [2]: 479 nM

Question: With `Cn1nccc1-c1cc(N2CC3CCC(C2)O3)nc2c(-c3cc[nH]n3)cnn12` [Example 26, 3-(7-(1-methyl-1H-pyrazol-5-yl)-3-(1H-pyrazol-3-yl)pyrazolo[1,5-a]pyrimidin-5-yl)-8-oxa-3-azabicyclo[3.2.1]octane] as the compound, how does the IC50 [1] read?
Answer: 57.7 nM

Question: And the IC50 [2]?
Answer: 1270 nM

Question: What does the source list for `CC(=O)N1CCN(c2cc(N3C[C@H]4CC[C@@H](C3)O4)nc3c2cnn3-c2cc[nH]n2)[C@H](C)C1` [Example 34, 1-((R)-4-(6-((1R,5S)-8-oxa-3-azabicyclo[3.2.1]octan-3-yl)-1-(1H-pyrazol-3-yl)-1H-pyrazolo[3,4-b]pyridin-4-yl)-3-methylpiperazin-1-yl)ethan-1-one]?
Answer: IC50 [1]: 7.6 nM; IC50 [2]: 424 nM

Question: Which results are given for `C[C@@H]1CNCCN1c1cc(N2CC3CCC(C2)O3)nn2c(-c3cc[nH]n3)ncc12` [Example 9, 3-(4-((R)-2-methylpiperazin-1-yl)-7-(1H-pyrazol-3-yl)imidazo[1,5-b]pyridazin-2-yl)-8-oxa-3-azabicyclo[3.2.1]octane formate]?
Answer: IC50 [1]: 79.2 nM; IC50 [2]: 592 nM

Question: With `FC1(F)CCN(c2cc(N3CC4CCC(C3)O4)nn3c(-c4cc[nH]n4)ncc23)CC1` [Example 14, 3-(4-(4,4-difluoropiperidin-1-yl)-7-(1H-pyrazol-3-yl)imidazo[1,5-b]pyridazin-2-yl)-8-oxa-3-azabicyclo[3.2.1]octane] as the compound, how does the IC50 [1] read?
Answer: 8 nM

Question: And the IC50 [2]?
Answer: 419 nM
